Assay results reported in patent US7208517B1, “Endothelin antagonists” (Abbott Labortories, priority 1994, dated 2007).

Key:
[1] = Determination of plasma protein binding (ultrafiltration, HPLC); assay type: in vitro ADME; parameters: fraction unbound at 1 h: dose or concentration left out as unconfirmed; conditions: fresh plasma, 1 hour at room temperature, read-out: percent of bound compound (plasma protein binding, % PB) (converted)
Protocol: A stock solution of the test compound in 50% ethanol (2 mg/mL) was diluted 10× into PBS. A 0.4 mL sample of this secondary stock solution was added to 3.6 mL of fresh plasma, and incubated at room temperature for 1 hour. A 1 mL sample of this incubation mixture was transferred to a Centrifree ultrafiltration tube. The sample was centrifuged in a fixed-bucket rotor for approximately 2 min and the filtrate was discarded. The sample was centrifuged for another 15–30 min. A 100 μL sample of the ultrafiltrate was transfered to a micro HPLC sample vial containing […] of HPLC mobile phase and mixed thoroughly. A 50 μL sample was injected and the concentration of drug in the ultrafiltrate was determined by HPLC analysis compared against a standard sample prepared identically in the absence of plasma. Ultrafiltrate concentrations are calculated from a calibration curve. Protein binding is calculated according to the equation: % PB=[1−(Cu/Ci)]*100%
where Cu is the ultrafiltrate concentration and Ci is the initial plasma concentration.

[2] = test system: male subjects with hormone refractory prostate cancer; test: Bone alkaline phosphatase (BAP) levels of treated subjects; assay type: in vivo, human; conditions: subjects treated versus placebo
Protocol: (§1) Studies were performed on male subjects with asymptomatic hormone refractory prostate cancer with rising PSA levels and on male subjects with symptomatic hormone refractory prostate cancer with rising PSA levels and pain. Subjects in the phase II studies had castrate levels of testosterone, either due to pharmacologic intervention, via leuprolide (Lupron®) or goserelin (Zoladex®), or via surgical castration. Subjects received ABT-627 or placebo. The following tests were conducted:
(§2) ABT-627 was formulated in 2.5 and 10 mg doses. An oral liquid formulation of ABT-627 was also prepared as follows: 1 mg/ml ABT-627, 50% glycerin, 14% alcohol, and water. Matching placebos were also provided.
Markers of osteoblastic activity were assessed using […]. Bone markers include bone alkaline phosphatase (BAP), deoxypridinoline, and N-telopeptide of Type I collagen. Blood samples were collected prior to dosing on Day 1, Day 42, Day 84, Day 168, and every 28 days after Day 168, with a final collection on the last day of the study.
Bone Alkaline Phosphatase levels were determined using the bone-specific Alkphase-B® assay published by Metra Biosystems (Mountain View, Calif.).

[3] = test system: male subjects with hormone refractory prostate cancer; test: Acid phosphatase levels in serum of treated subjects; assay type: in vivo, human; conditions: subjects treated with placebo or 2.5 mg or 10 mg
Protocol: as §1, §2
The enzyme Acid Phosphatase (ACP) catalyzes the hydrolysis of alpha-naphthyl phosphate to alpha-naphthol and inorganic phosphate. The alpha-naphthol immediately reacts with fast red TR salt to produce a yellow chromophore with an absorbance maximum at 405 nm. The rate of increase in absorbance at 405 nm is directly proportional to ACP activity in the sample. ACP activity was determined in the presence and absence of L-tartrate, the difference being attributed to prostatic acid phosphatase activity.
Briefly, a subject population was treated with a placebo or 2.5 mg or 10 mg of ABT-627. […] The mixture was incubated for another 5 minutes, and a second absorbance was read to provide a final absorbance. […]

[4] = test system: male subjects with hormone refractory prostate cancer; test: Prostate specific antigen (PSA) level assay in serum of treated subjects; assay type: in vivo, human; conditions: subjects treated with placebo or 2.5 mg or 10 mg
Protocol: as §1, §2
A number of recognized or putative biochemical markers of disease progression have been used to monitor treatment of individuals with prostate cancer. […]
The effect of ABT-627 administeration on prostate specific antigen (PSA) levels in human subject serum samples was determined using the procedure described in the Chiron Diagnostics ACS: Centaur PSA2 Assay. […]
Briefly, a subject population was treated with a placebo or 2.5 mg or 10 mg of ABT-627. […] A direct relationship exists between the amount of PSA present in the patient sample and the RLU's (relative light units) detected.

fraction unbound at 1 h [1] | Structure (SMILES) | BAP levels (AUC, FIG. 5) [2] | rate of increase and average change from baseline for acid phosphatase (AUC, FIG. 7) [3] | rate of increase of PSA in serum (AUC, FIG. 2) [4]
0.08 | CCCCN(C(=O)CN1CC(c2ccc3c(c2)OCO3)C(C(=O)O)C1c1ccc(OC)cc1)c1cccnc1 (stereo not shown) [compound 531] | – | – | –
– | CCCCCN(CCCC)C(=O)CN1C[C@H](c2ccc3c(c2)OCO3)[C@@H](C(=O)O)[C@@H]1c1ccc(OC)cc1 [ABT-627] | BAP levels decreased | the rate of increase and the average change from baseline for acid phosphatase was decreased | rate of increase of PSA in the serum samples decreases
